Measured values: US20080293583A1, “Methods for diagnosing mood disorders” (Wyeth, priority 2003, published 2008)

How the values were obtained:
Format in all cases: in vivo
[1] = test system: GLIA maturation factor beta (GMF-β); assay: 2-DE proteome analysis of rat hippocampus: GMF-β; conditions: rat hippocampus cytosolic extract, 10 mg/kg i.p. daily 14 days, vs control; gel spot 67
Method: (§1) Animal dosing. Adult male Sprague Dawley rats weighing 230-320 g were housed with ad libitum access to food and water. After 1 week of habituation, rats were administered either an antidepressant or vehicle alone. The following drugs were administered intraperitoneally (i.p.): fluoxetine (10 mg/kg daily), venlafaxine (10 mg/kg daily) or vehicle alone (1 ml/kg normal saline daily) for 14 days (n=3 rats per group).
(§2) Sample preparation and cytosolic protein extraction. The animals were euthanized and hippocampi were rapidly dissected from the whole brain. Samples from each treatment group were pooled and stored at −85° C. Cytosolic extracts were prepared using the universal extraction kit from Sigma (prot-two) as follows: soluble cytoplasmic extraction reagent (S2688) was added to the hippocampal tissue (10 ml/250 mg wet weight). […]
(§3) Two-dimensional gel electrophoresis. […] Molecular masses were determined by running standard protein markers (Genomic Solutions Inc.), covering the range 10-200 kDa as well as internal verification via landmark proteins within the gel. […]
(§4) Protein fixation, silver staining and 2-D gel comparisons. […] Protein spots were outlined (first automatically and then manually) and quantified using the HT analyzer v2.2 software (Genomic Solutions Inc.). The software calculated the relative spot volume of the proteins compared with the total amount of protein in the gel. […]

[2] = test system: Dihydropyrimidinase Related Protein-2 (DRP-2; CRMP-2; TOAD-64); assay: 2-DE proteome analysis of rat hippocampus: DRP-2/CRMP-2; conditions: rat hippocampus cytosolic extract, 10 mg/kg i.p. daily 14 days, vs control; gel spot 1
Method: as §1, §2, §3, §4

[3] = test system: D-dopachrome tautomerase; assay: 2-DE proteome analysis of rat hippocampus: D-dopachrome tautomerase; conditions: rat hippocampus cytosolic extract, 10 mg/kg i.p. daily 14 days, vs control; gel spot 93
Method: as §1, §2, §3, §4

[4] = test system: NG, NG-Dimethylarginine Dimethylaminohydrolase 1 (DDAH1); assay: 2-DE proteome analysis of rat hippocampus: DDAH1; conditions: rat hippocampus cytosolic extract, 10 mg/kg i.p. daily 14 days, vs control; gel spot 18
Method: as §1, §2, §3, §4

[5] = test system: Proteasome subunit alpha type 2 (Multicatalytic endopeptidase complex subunit C3); assay: 2-DE proteome analysis of rat hippocampus: Proteasome subunit alpha type 2; conditions: rat hippocampus cytosolic extract, 10 mg/kg i.p. daily 14 days, vs control
Method: as §1
(§5) Sample preparation and cytosolic protein extraction. The animals were euthanized and hippocampi were rapidly dissected from the whole brain. Samples from each treatment group were pooled and stored at −85° C. Cytosolic extracts were prepared using the universal extraction kit from Sigma (prot-two) as follows: soluble cytoplasmic extraction reagent (S2688) was added to the hippocampal tissue (10 ml/250 mg wet weight). Samples were sonicated (4 times at 30 seconds) and centrifuged for 45 minutes (14,000 g) at 4° C. The supernatant was decanted and stored on ice. Ten milliliters of the soluble cytoplasmic extraction reagent was added to the remaining pellet and the sonication and centrifugation steps were repeated. The supernatant was decanted, combined with the previous supernatant and SpeedVac (Savant Instruments, Halbrook, N.Y.) dried. Each sample was dissolved in 2 ml of 2-D lysis buffer (6 M urea, 2 M thiourea, 4% CHAPS, 40 mM Tris, 65 mM dithiothreitol (DTT), 1 mM sodium vanadate, 1 mM sodium fluoride, protease inhibitor tablet (#1836145, Roche)), concentrated and desalted (Centricon tube; 6500 rpm) at 10° C. for 12 hours.
Two-dimensional gel electrophoresis. First dimensional isoelectric focusing (IEF) was performed on 18 cm IPG strips (pH 4-7) using an IPGphor unit (Amersham Pharmacia). Each strip was rehydrated for 16 hours with sample lysate (˜500 ug) in a final volume of 400 uL of IEF solution (10 uL of bromophenol blue (0.25% w/v); 2 uL of Ampholyte (pH 4-7, Amersham #17-6000-86); 2-D lysis buffer). […] The strips were then subjected to a two-step equilibration (50 mM Tris; 2% SDS; 30% glycerol) in (A) 0.5% DTT (Bio-Rad) and (B) 4.5% iodoacetamide (Sigma) buffers before proceeding to SDS-PAGE. […] Molecular masses were determined by running standard protein markers (Genomic Solutions Inc.), covering the range 10-200 kDa as well as internal verification via landmark proteins within the gel. […]
as §4

[6] = test system: Fatty Acid-Binding Protein, Heart (H-FABP); assay: 2-DE proteome analysis of rat hippocampus: H-FABP; conditions: rat hippocampus cytosolic extract, 10 mg/kg i.p. daily 14 days, vs control; gel spot 89
Method: as §1, §2, §3, §4

[7] = test system: 61 S Ribosomal protein L28; assay: 2-DE proteome analysis of rat hippocampus: Ribosomal protein L28; conditions: rat hippocampus cytosolic extract, 10 mg/kg i.p. daily 14 days, vs control; gel spot 66
Method: as §1, §2, §3, §4

[8] = test system: Transcription factor BTEB 1; assay: 2-DE proteome analysis of rat hippocampus: BTEB 1; conditions: rat hippocampus cytosolic extract, 10 mg/kg i.p. daily 14 days, vs control; gel spot 19
Method: as §1, §2, §3, §4

[9] = test system: Alpha-enolase; assay: 2-DE proteome analysis of rat hippocampus: Alpha-enolase; conditions: rat hippocampus cytosolic extract, 10 mg/kg i.p. daily 14 days, vs control; for Fold change, Alpha-enolase (spot 8): gel spot 8; for Fold change, Alpha-enolase (spot 9): gel spot 9; for Fold change, Alpha-enolase (spot 10): gel spot 10
Method: as §1, §5
Two-dimensional gel electrophoresis. First dimensional isoelectric focusing (IEF) was performed on 18 cm IPG strips (pH 4-7) using an IPGphor unit (Amersham Pharmacia). Each strip was rehydrated for 16 hours with sample lysate (˜500 ug) in a final volume of 400 uL of IEF solution (10 uL of bromophenol blue (0.25% w/v); 2 uL of Ampholyte (pH 4-7, Amersham #17-6000-86); 2-D lysis buffer). […] The strips were then subjected to a two-step equilibration (50 mM Tris; 2% SDS; 30% glycerol) in (A) 0.5% DTT (Bio-Rad) and (B) 4.5% iodoacetamide (Sigma) buffers before proceeding to SDS-PAGE. Separation in the second dimension was performed on 10% SDS polyacrylamide gels (180×1.5 mm) at a constant voltage of 500 V at 15° C. for 28 hours using an Investigator 2D electrophoresis unit (Genomic Solutions Inc., MA) which accommodated 10 gels. Molecular masses were determined by running standard protein markers (Genomic Solutions Inc.), covering the range 10-200 kDa as well as internal verification via landmark proteins within the gel. The pl values were used as given by the supplier of the immobilized pH-gradient strips.
Protein fixation, silver staining and 2-D gel comparisons. Silver staining of the gels was performed using a silver stain kit (gs#80-0183; Genomic Solutions). All steps were performed at room temperature, gently agitating the trays on a rotary shaker at low speed. Stained gels were scanned using an 8-bit ccd camera and the Investigator G3 ProPic system (Genomic Solutions Inc.). Protein spots were outlined (first automatically and then manually) and quantified using the HT analyzer v2.2 software (Genomic Solutions Inc.). The software calculated the relative spot volume of the proteins compared with the total amount of protein in the gel. The HT analyzer software was used to cross-match (‘synchronize’) and identify protein spots between control gels and drug treatment gels that were different in integrated intensity by at least a factor of 1.5 versus control. […] This population of spots were automatically picked from each gel with the ProPic system for in-gel trypsin digestion.
Enzymatic digestion of protein spots. Silver-stained protein spots were automatically excised and transferred to a 96-well polypropylene microtiter plate. Each excised spot was de-stained to remove the silver ions and enhance sensitivity with 30 mM potassium ferricyanide and 100 mM sodium thiosulfate (1:1 ratio). […]

[10] = test system: Antioxidant protein 2 (calcium-independent PLA2); assay: 2-DE proteome analysis of rat hippocampus: Antioxidant protein 2; conditions: rat hippocampus cytosolic extract, 10 mg/kg i.p. daily 14 days, vs control; gel spot 51
Method: as §1, §2, §3, §4

[11] = test system: Glutathione S-Transferase Yb3; assay: 2-DE proteome analysis of rat hippocampus: Glutathione S-Transferase Yb3; conditions: rat hippocampus cytosolic extract, 10 mg/kg i.p. daily 14 days, vs control; gel spot 56
Method: as §1, §2, §3, §4

Row | SMILES | Fold change, GLIA maturation factor beta (GMF-β) [1] [Fold change] | Fold change, Dihydropyrimidinase Related Protein-2 (DRP-2; CRMP-2; TOAD-64) [2] [Fold change] | Fold change, D-dopachrome tautomerase [3] [Fold change] | Fold change, NG, NG-Dimethylarginine Dimethylaminohydrolase 1 (DDAH1) [4] [Fold change] | Fold change, Proteasome subunit alpha type 2 ([5]; gel spot 27) [Fold change] | Fold change, Proteasome subunit alpha type 2 ([5]; gel spot 27, listed as fluoxetine) [Fold change] | Fold change, Fatty Acid-Binding Protein, Heart (H-FABP) [6] [Fold change] | Fold change, 61 S Ribosomal protein L28 [7] [Fold change] | Fold change, Transcription factor BTEB 1 [8] [Fold change] | Fold change, Alpha-enolase (spot 8) [9] [Fold change] | Fold change, Alpha-enolase (spot 9) [9] [Fold change] | Fold change, Alpha-enolase (spot 10) [9] [Fold change] | Fold change, Antioxidant protein 2 [10] [Fold change] | Fold change, Glutathione S-Transferase Yb3 [11] [Fold change] | Fold change, Proteasome subunit alpha type 2 ([5]; gel spot 27, listed as venlafaxine) [Fold change]
1 | CNCCC(Oc1ccc(C(F)(F)F)cc1)c1ccccc1 (stereo not shown) [Fluoxetine, fluoxetine] | 3 | 2.6 | 2.2 | 1.6 | 6.1 | 6 | 1.6 | 0.7 | 1.6 | 3.4 | 5 | 3 | 1.6 | 0.5 | 
2 | COc1ccc(C(CN(C)C)C2(O)CCCCC2)cc1 (stereo not shown) [Venlafaxine, venlafaxine] | 2.7 | 4.1 | 2.3 | 2.2 | 10.6 |  | 2.1 | 0.6 | 2.3 | 2 | 4.8 | 4.1 | 1.7 | 0.5 | 10
